Converted amounts (≈) assume the structure as drawn. Like-named read-outs stand apart in the source and are kept apart here.
Tests used:
Type in all cases: cell-based, S. cerevisiae
ABY12 strain = test: growth inhibition (IC values) in the ABY12 strain
Source text: 3. The drug-like agents selected for the assay were the GS inhibitors Enfumafungin, Ascosteroside, and Dihydropapulacandin B; along with the Elongation Factor 2 (EF2) inhibitor Sordarin, to be used as a negative control. These four drugs were all added to the second column of each 96-well assay plate and serially diluted (1 to 2) into Casamino Acids media plus 2% DMSO in columns 3–12, so that column 2 of each plate will contain the highest concentration of each drug and column 12 will contain the lowest. The first column of each plate was used as a “no drug” control, containing only Casamino Acids media plus 2% DMSO. The concentrations for each drug that were added to the wells in column 2 are shown in Table VI (Maximum Concentration Tested) along with the rows of each plate they were added to (Table VI, Rows).
5. After the 24 hour incubation the 96-well assay plates were imaged in a Molecular Dynamics Fluorimager SI to measure the fluorescence from the GFP reporters. […] Additionally, none of the compounds tested induced increased fluorescence from the reporter for inhibition of sterol biosynthesis, HES1 (FIG. 20). […] Of note here is the fact that the highest concentrations tested were all substantially greater than the measured IC50's for these compounds in the ABY12 strain (Table VI). Therefore these strains are capable of reporting on inhibition of GS even at drug concentrations that inhibit cell growth. This is an important characteristic of this assay as the preferred method of high-throughput screening would be to perform the screens at one high concentration for every compound assayed. It has been previously shown that the HES1 reporter strain is capable of performing under such assay conditions in a 384-well formatted high-throughput screen of a combinatorial library (WO 00/58521, PCT published application).

[1] = tested on: YOL113W (SKM1), YNR066C, YLR121C (YPS3), YKL161C, and YAR050W (FLO1) GFP reporters; test: liquid high-throughput like 96-well GFP reporter assay, glucan synthase pathway reporters; conditions: serial 1 to 2 dilutions, ~24 hours at 30 degrees Celsius, five GS reporters
Experimental: The five reporters selected were: YOL113W (SKM1), YNR066C, YLR121C (YPS3), YKL161C, and YAR050W (FLO1). Another reporter, YOR237W (HES1), was selected as a negative control.
1. Reporters transformed into wild-type S. Cerevisiae strain ABY12 were grown on solid Casamino Acids media plates.
2. The cultures from the solid media plates were used to inoculate 50 ml liquid cultures in Casamino Acids media. These liquid cultures were grown overnight at 30 degrees Celsius. The cultures were all grown to a final OD600˜=8 (Table V).
These cultures were then diluted in Casamino Acids media to and OD600=2.
3. The drug-like agents selected for the assay were the GS inhibitors Enfumafungin, Ascosteroside, and Dihydropapulacandin B; along with the Elongation Factor 2 (EF2) inhibitor Sordarin, to be used as a negative control. […]
5. After the 24 hour incubation the 96-well assay plates were imaged in a Molecular Dynamics Fluorimager SI to measure the fluorescence from the GFP reporters. […] Additionally, none of the compounds tested induced increased fluorescence from the reporter for inhibition of sterol biosynthesis, HES1 (FIG. 20). […] Of note here is the fact that the highest concentrations tested were all substantially greater than the measured IC50's for these compounds in the ABY12 strain (Table VI). […]

wild-type S288C strain = test: microbe, parasite or virus in culture
Experimental: First, comprehensive gene expression profiles for S. cerevisiae grown in the presence of known inhibitors of glucan synthase were constructed. Enfumafungin and Ascosteroside were two known glucan synthase inhibitors used in the present invention. Prior to exposing the GRM to these two glucan synthase inhibitors, growth inhibition studies were performed on wild-type S288C strain in order to determine the appropriate concentrations for GRM profiling.

[2] = tested on: gene reporters in the GRM (promoter-GFP fusions); test: Genome Reporter Matrix (GRM) reporter gene expression profiling
Source text: Genome Reporter Matrix™ (GRM) technology was used to generate the gene expression profiles that the glucan synthase inhibition treatments induced in the yeast S. cerevisiae. The GRM was used to generate comprehensive gene expression profiles in the yeast S. cerevisiae. The GRM used in the present invention was a matrix of units comprising living S. cerevisiae cells, the cells in each unit containing one S. cerevisiae reporter fusions (GRM construct) representative of essentially every known gene and hypothetical open reading frame (ORF) of S. cerevisiae. The GRM constructs used in the present invention comprised a promoter, 5′ upstream untranslated region and usually the first four amino acids from one of each hypothetical ORF fused to a gene encoding the green fluorescent protein (GFP).
Solutions of test compounds were added directly to the solid agar growth media plates prior to addition of S. cerevisiae strains. The individual strains comprising the GRM were maintained as independent colonies (and cultures) in a 96-well format, in medium selecting for the URA2-containing reporter plasmid. Prior to each experiment, fresh dilutions of the reporter-containing strains were inoculated and grown overnight at 30° C. A Hamilton MicroLab 4200, a multichannel gantry robot equipped with a custom pin tool device capable of dispensing 50 nanoliter volumes in a highly reproducible manner, was used to array the matrix of S. cerevisiae strains in a uniform manner onto solid agar growth media at a density of 1536 reporter strains per 110 cm^2 plate. Fifty nanoliters of S. cerevisiae liquid cultures arrayed onto solid medium by the Hamilton Microlab 4200 results in colony-to-colony signal reproducibility of less than 5% variation. Once arrayed, each plate was grown at 30° C. for 18 hours or at 25° C. for 24 hours.
The level of fluorescence expressed from each reporter gene fusion was determined using a Molecular Dynamics Fluorimager SI. Custom image analysis software was used to quantitate the fluorescence of each colony in the images.

YOL113W (SKM1) reporter = test: solid plate halo assay, reporter fluorescence; conditions: 20 ul of 200 μg/ml and 1 mg/ml on paper disc, 23 hour incubation
Experimental: (§1) This assay is meant to mimic assays where natural product producing strains would be either plated onto a lawn of our ABY12 reporter carrying strains, or an agar overlay containing the ABY12 reporter strain would be placed over a plate containing natural product producing strains, the purpose being identifying strains that are producing molecules that inhibit GS.
(§2) 1. The YOL113W (SKM1) reporter transformed into wild-type S. Cerevisiae strain ABY12 was grown on a solid Casamino Acids media plate.
(§3) 2. The culture from the solid media plate was used to inoculate a 50 ml liquid culture in Casamino Acids media. This liquid culture was grown overnight at 30 degrees Celsius. The culture was grown to a final OD600=10.5. This culture was then diluted in Casamino Acids media to an OD600=1, or 1×10^7 cells per milliliter. Five-hundred microliters of cell culture (5×10^6 cells) was then spread evenly over the surface of each of two 100 mm solid agar-Casamino-acids-media plates to form a lawn of the YOL113W (SKM1) reporter strain on each plate.
(§4) 3. Two 6 mm diameter blank paper discs (BECTON DICKINSON® #231039) were placed on top of the agar surface of each plate evenly spaced apart. […]
(§5) 4. After a 23 hour incubation the assay plates were imaged in a Molecular Dynamics Fluorimager SI to measure the fluorescence from the GFP reporters. […]

[3] = tested on: lawn of the YOL113W (SKM1) reporter strain (ABY12); test: solid plate halo assay, growth of lawn; conditions: 20 ul of 200 μg/ml (low) and 20 ul of 1 mg/ml (high) on paper disc, 23 hour incubation
Experimental: as §1, §2, §3, §4, §5

[4] = Saccharomyces cerevisiae, read-out: IC50
[5] = growth inhibition, wild-type S288C strain

Compound	IC25 (ABY12 strain)	IC75 (ABY12 strain)	IC50 (ABY12 strain; [4])	fluorescence from the GFP reporters versus no drug controls [1]	IC25 (wild-type S288C strain; [5])	IC50 (wild-type S288C strain; [5])	effectiveness in growth inhibition assays (wild-type S288C strain; wild-type S288C strain)	IC50 (ABY12 strain)	expression response of reporter YKL161C ([2]; 5 μg/ml in 1% DMSO, FIG. 9)	number of gene reporters significantly up- or down-regulated ([2]; lowest concentration (5.0 μg/ml), p<=0.01, of roughly 6,000 gene reporters in the GRM)	induction of the YOL113W (SKM1) reporter (fluorescence at edge of halo) (YOL113W (SKM1) reporter)	induction of the YOL113W (SKM1) reporter (fluorescence at edge of halo) (YOL113W (SKM1) reporter; listed as enfumafungin)	IC50 (wild-type S288C strain; Saccharomyces cerevisiae)	IC75 (wild-type S288C strain; [5])	growth of the lawn around paper disc (halo) [3]	growth inhibition of the GRM ([2]; 0.60 μg/ml and 0.75 μg/ml)
CO[C@H]1[C@@H](O)[C@H](O)[C@H](OC[C@@]23C[C@@H]4[C@H](C)CC[C@H]4[C@@]4(C=O)CC2C=C(C(C)C)[C@@]34C(=O)O)O[C@@H]1C [Sordarin]	1.1 µg/mL (≈ 2.23 µM)	2.5 µg/mL (≈ 5.08 µM)	1.5 µg/mL (≈ 3.05 µM)	None of the reporters, however, showed any increase in fluorescence												
C=C(CC[C@H](C)[C@H]1C[C@@H](O)[C@@]2(C(=O)O)C3=C(CC[C@]12C)[C@@]1(C)CC[C@H](O[C@H]2O[C@H](CO)[C@@H](OC)[C@H](O)[C@H]2O)C(=C)[C@@H]1CC3)C(C)C [Ascosteroside]	6.3 µg/mL (≈ 9.74 µM)				6.3 µg/mL (≈ 9.74 µM)	19 µg/mL (≈ 29.4 µM)	effective	19 µg/mL (≈ 29.4 µM)	highly up-regulated	318						
Dihydropapulacandin B	3.7 µg/mL	5.3 µg/mL						4.4 µg/mL								
CC(=O)O[C@@H]1C[C@]23C4=CC[C@@]5(C)[C@H](C(=O)O)[C@@](C)([C@H](C)C(C)C)CC[C@]5(C)[C@H]4CC[C@H]2[C@@](C)(COC3O)[C@H]1O[C@@H]1O[C@H](CO)[C@@H](O)[C@H](O)[C@H]1O (stereo partly shown) [Enfumafungin]	0.54 µg/mL (≈ 0.762 µM)	0.9 µg/mL (≈ 1.27 µM)	0.69 µg/mL (≈ 0.973 µM)		0.54 µg/mL (≈ 0.762 µM)		effective				significantly induced	upregulating SKM1 reporter	0.69 µg/mL (≈ 0.973 µM)	0.9 µg/mL (≈ 1.27 µM)	inhibited the growth of the lawn	too much growth inhibition

From patent publication US7022481B2, “Methods of using glucan synthase pathway reporter genes to screen for antifungal compounds” (Rosetta Inpharmatics LLC, priority 2002, dated 2006)
